For 2 molecules, MIC results are on record in patent US20110009462A1, “STABLE, SYNERGISTIC MIXTURES” (LANXESS DEUTSCHLAND GMBH, priority 2007, published 2011).

SMILES strings stand for the structures.

Type in all cases: cell-based
Experiment [1] concerns Pseudomonas fluorescens. Kind of experiment: MIC and synergism (Kull) against Pseudomonas fluorescens, Landy minimal medium pH 9. As to the method: (§1) The synergism was determined by the method described by Kull et al. (F. C. Kull, P. C. Eismann, H. D. Sylvestrowicz, R. L. Mayer, Applied Microbiology 9, 538 to 541, 1961). The following relationships apply:
(§2) [formula] • Qa=amount of substance A • Qb=amount of substance B • MIC(A)=concentration of substance A which prevents microbial growth • MIC(B)=concentration of substance B which prevents microbial growth • MIC(A+B)=concentration of substance A+B which prevents microbial growth • SI=synergistic index, where SI=1 means additive effect • SI>1 means antagonism • SI<1 means synergism
Various concentrations of GDA and MIT and mixtures of the two abovementioned active substances were tested against the bacterium Pseudomonas fluorescens. The incubation is performed in Landy minimal medium at pH 9 and 26° C. The growth of Pseudomonas fluorescens was compared at the various active substance concentrations with the growth without active substance. The lowest concentration at which growth was no longer detected is stated as the minimum inhibitory concentration (MIC).

For experiment [2], the system named is Pseudomonas fluorescens. Kind of experiment: MIC and synergism (Kull) against Pseudomonas fluorescens, Landy minimal medium pH 7. The procedure:
as §1, §2
Various concentrations of GDA and MIT and mixtures of the two abovementioned active substances were tested against the bacterium Pseudomonas fluorescens. The incubation is performed in Landy minimal medium at pH 7 and 26° C. The growth of Pseudomonas fluorescens was compared at various active substance concentrations with the growth without active substance. The lowest concentration at which growth was no longer detected is stated as the minimum inhibitory concentration (MIC).

The next experiment concerns Rhodotorula rubra. Kind of experiment: MIC and synergism (Kull) against yeast Rhodotorula rubra, malt extract liquid medium. As to the method: as §1, §2
Various concentrations of GDA and MIT and mixtures of the two abovementioned active substances were tested against the yeast Rhodotorula rubra. The incubation is performed in malt extract liquid medium at 26° C. The growth of Rhodotorula rubra was compared at the various active substance concentrations with the growth without active substance. The lowest concentration at which growth was no longer detected is stated as the minimum inhibitory concentration (MIC).

A further experiment deals with Corynebacterium. Description: MIC and synergism (Kull) against Corynebacterium, Landy minimal medium pH 9. The procedure:
as §1, §2
Various concentrations of GDA and MIT and mixtures of the two abovementioned active substances were tested against the bacterium Corynebacterium. The incubation is performed in Landy minimal medium at pH 9 and 26° C. The growth of Corynebacterium was compared at the various active substance concentrations with the growth without active substance. The lowest concentration at which growth was no longer detected is stated as the minimum inhibitory concentration (MIC).

Where [3] appears, read: Landy minimal medium, pH 9, 26° C.

Turning to `Cn1sccc1=O` [MIT, 2-methyl-2H-isothiazol-3-one], the MIC with Pseudomonas fluorescens [1] (pH 9) was 20 µg/mL; with Pseudomonas fluorescens [2] (pH 7) it was 5 µg/mL; in the experiment on Rhodotorula rubra (Rhodotorula) it was 50 µg/mL; in the experiment with Corynebacterium (pH 9), 5 µg/mL.

As to `O=CCCCC=O` [GDA, glutardialdehyde], the MIC is recorded as 50 ppm in the experiment with Pseudomonas fluorescens [1] (setting [3]); 20 ppm with Pseudomonas fluorescens [2] (Landy minimal medium, pH 7, 26° C.); 100 ppm in the experiment on Rhodotorula rubra (Rhodotorula rubra, malt extract liquid medium, 26° C.); 10 ppm in the experiment on Corynebacterium (setting [3]).
